Source: BindingDB's records for doi:10.7270/Q2TX3CTT (Broad Institute, 2010)
Counter-ions that a name gives are not always drawn.

Molecular target: Glycogen synthase kinase-3 beta (Homo sapiens, UniProt P49841)
Experiment: GSK3beta kinase inhibitor potency, dose response, biochemical, luminescence, cell-free homogeneous, retest (AID 434954)

Glycogen synthase kinase-3 beta, sequence (P49841 whole entry): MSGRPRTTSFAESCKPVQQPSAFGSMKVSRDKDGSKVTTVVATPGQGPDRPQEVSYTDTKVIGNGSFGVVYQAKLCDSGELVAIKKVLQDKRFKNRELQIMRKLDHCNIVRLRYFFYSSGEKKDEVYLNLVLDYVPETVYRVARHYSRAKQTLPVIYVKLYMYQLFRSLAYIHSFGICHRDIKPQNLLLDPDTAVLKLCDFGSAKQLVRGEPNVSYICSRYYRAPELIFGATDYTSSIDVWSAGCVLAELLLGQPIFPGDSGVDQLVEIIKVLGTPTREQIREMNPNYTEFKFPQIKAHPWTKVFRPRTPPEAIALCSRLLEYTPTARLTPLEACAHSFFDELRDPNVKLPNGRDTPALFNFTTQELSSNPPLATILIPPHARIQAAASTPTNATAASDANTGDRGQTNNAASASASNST

EC50	Structure (SMILES)
> 300 µM	Cc1occc1C(=O)N1CCN(C(=O)C2CCCO2)CC1 (stereo unspecified) [1-(2-methyl-3-furoyl)-4-(tetrahydro-2-furanylcarbonyl)piperazine]
> 300 µM	Cc1ccccc1NC(=O)Nc1ccccn1 [1-(2-methylphenyl)-3-pyridin-2-ylurea]
> 300 µM	Cc1ccccc1-n1nnc2c(=O)oc3ccccc3c21 [1-(2-methylphenyl)chromeno[3,4-d]triazol-4-one]
> 300 µM	COC(=O)C1=CN(Cc2ccc(OC)c(OC)c2)C=C(C(=O)OC)C1c1ccccc1F [1-(3,4-Dimethoxy-benzyl)-4-(2-fluoro-phenyl)-1,4-dihydro-pyridine-3,5-dicarboxylic acid dimethyl ester]
> 300 µM	CC(C)CC(CO)N1CCN(C(=O)c2ccc(Cl)c(Cl)c2)CCC1=O (stereo unspecified) [1-(3,4-dichlorobenzoyl)-4-(1-hydroxy-4-methylpentan-2-yl)-1,4-diazepan-5-one]
> 300 µM	Cc1cc(C)cc(NC(=O)NCC2CCN(Cc3cc(C)ccc3C)CC2)c1 [1-(3,5-dimethylphenyl)-3-[[1-[(2,5-dimethylphenyl)methyl]-4-piperidinyl]methyl]urea]
> 300 µM	CC(C)OCCCN1CN(S(=O)(=O)c2cccc(Cl)c2)c2nc3ccccc3nc21 [1-(3-Chloro-benzenesulfonyl)-3-(3-isopropoxy-propyl)-2,3-dihydro-1H-imidazo[4,5-b]quinoxaline]
> 300 µM	COc1cccc(C(=O)CSc2nccn2C)c1 [1-(3-Methoxy-phenyl)-2-(1-methyl-1H-imidazol-2-ylsulfanyl)-ethanone]
> 300 µM	CC(=O)c1cccc(NC(=O)NN2CCN(C)CC2)c1 [1-(3-ethanoylphenyl)-3-(4-methylpiperazin-1-yl)urea]
> 300 µM	Cc1cc(OCC(O)CNC(C)c2ccccc2)ccc1C(C)C (stereo unspecified) [1-(3-methyl-4-propan-2-ylphenoxy)-3-(1-phenylethylamino)-2-propanol;hydrochloride]
1.58 µM	Nc1nonc1-n1nnc(C(=O)NN=Cc2c(F)cccc2Cl)c1-c1ccc2c(c1)OCO2 [1-(4-amino-1,2,5-oxadiazol-3-yl)-5-(1,3-benzodioxol-5-yl)-N-[(2-chloro-6-fluorophenyl)methylideneamino]-4-triazolecarboxamide]
2.56 µM	Nc1nonc1-n1nnc(C(=O)NN=Cc2cccc(F)c2)c1CN1CCCCCC1 [1-(4-amino-1,2,5-oxadiazol-3-yl)-5-(1-azepanylmethyl)-N-[(3-fluorophenyl)methylideneamino]-4-triazolecarboxamide]
> 300 µM	CN(C)c1ccc(C=NNC(=O)c2nnn(-c3nonc3N)c2CN2CCCCCC2)cc1 [1-(4-amino-1,2,5-oxadiazol-3-yl)-5-(1-azepanylmethyl)-N-[[4-(dimethylamino)phenyl]methylideneamino]-4-triazolecarboxamide]
6.97 µM	COC(=O)c1nnn(-c2nonc2N)c1CN1CCc2ccccc21 [1-(4-amino-1,2,5-oxadiazol-3-yl)-5-(2,3-dihydroindol-1-ylmethyl)-4-triazolecarboxylic acid methyl ester]
> 300 µM	CCc1ccc(C=NNC(=O)c2nnn(-c3nonc3N)c2CN2CCc3ccccc32)cc1 [1-(4-amino-1,2,5-oxadiazol-3-yl)-5-(2,3-dihydroindol-1-ylmethyl)-N-[(4-ethylphenyl)methylideneamino]triazole-4-carboxamide]
3.62 µM	Nc1nonc1-n1nnc(C(=O)NN=Cc2ccccc2)c1CN1CCc2ccccc21 [1-(4-amino-1,2,5-oxadiazol-3-yl)-5-(2,3-dihydroindol-1-ylmethyl)-N-[(phenylmethylene)amino]-4-triazolecarboxamide]
19 µM	COc1cccc(-c2c(C(=O)NN=C(C)c3ccncc3)nnn2-c2nonc2N)c1 [1-(4-amino-1,2,5-oxadiazol-3-yl)-5-(3-methoxyphenyl)-N-(1-pyridin-4-ylethylideneamino)-4-triazolecarboxamide]
20 µM	CCOC(=O)c1nnn(-c2nonc2N)c1-c1ccc(OCC)cc1 [1-(4-amino-1,2,5-oxadiazol-3-yl)-5-(4-ethoxyphenyl)-4-triazolecarboxylic acid ethyl ester]
14.4 µM	CCOC(=O)c1nnn(-c2nonc2N)c1-c1ccc(OC)cc1 [1-(4-amino-1,2,5-oxadiazol-3-yl)-5-(4-methoxyphenyl)-4-triazolecarboxylic acid ethyl ester]
> 300 µM	Nc1nonc1-n1nnc(C(=O)NN=Cc2ccccn2)c1CNc1ccccc1 [1-(4-amino-1,2,5-oxadiazol-3-yl)-5-(anilinomethyl)-N-(2-pyridinylmethylideneamino)-4-triazolecarboxamide]
> 300 µM	CCN(CC)Cc1c(C(=O)NN=Cc2cccc3ccccc23)nnn1-c1nonc1N [1-(4-amino-1,2,5-oxadiazol-3-yl)-5-(diethylaminomethyl)-N-(1-naphthalenylmethylideneamino)-4-triazolecarboxamide]
119 µM	CCN(CC)Cc1c(C(=O)NN=Cc2ccco2)nnn1-c1nonc1N [1-(4-amino-1,2,5-oxadiazol-3-yl)-5-(diethylaminomethyl)-N-(2-furanylmethylideneamino)-4-triazolecarboxamide]
9.17 µM	CCN(CC)Cc1c(C(=O)NN=Cc2cccnc2)nnn1-c1nonc1N [1-(4-amino-1,2,5-oxadiazol-3-yl)-5-(diethylaminomethyl)-N-(3-pyridinylmethylideneamino)-4-triazolecarboxamide]
5.16 µM	CCN(CC)Cc1c(C(=O)NN=Cc2cccs2)nnn1-c1nonc1N [1-(4-amino-1,2,5-oxadiazol-3-yl)-5-(diethylaminomethyl)-N-(thiophen-2-ylmethylideneamino)triazole-4-carboxamide]
23 µM	CCN(CC)Cc1c(C(=O)NN=Cc2ccc(C)o2)nnn1-c1nonc1N [1-(4-amino-1,2,5-oxadiazol-3-yl)-5-(diethylaminomethyl)-N-[(5-methylfuran-2-yl)methylideneamino]triazole-4-carboxamide]
6.22 µM	COC(=O)c1nnn(-c2nonc2N)c1CSCCO [1-(4-amino-1,2,5-oxadiazol-3-yl)-5-[(2-hydroxyethylthio)methyl]-4-triazolecarboxylic acid methyl ester]
21.1 µM	COC(=O)c1nnn(-c2nonc2N)c1CSc1ccccn1 [1-(4-amino-1,2,5-oxadiazol-3-yl)-5-[(2-pyridinylthio)methyl]-4-triazolecarboxylic acid methyl ester]
54.1 µM	CC(C)OC(=O)c1nnn(-c2nonc2N)c1CSc1ccccn1 [1-(4-amino-1,2,5-oxadiazol-3-yl)-5-[(2-pyridinylthio)methyl]-4-triazolecarboxylic acid propan-2-yl ester]
> 300 µM	Nc1nonc1-n1nnc(C(=O)NN=Cc2ccoc2)c1CSc1ccc(Cl)cc1 [1-(4-amino-1,2,5-oxadiazol-3-yl)-5-[(4-chlorophenyl)sulfanylmethyl]-N-(furan-3-ylmethylideneamino)triazole-4-carboxamide]
2.18 µM	CN(C)Cc1c(C(=O)NN=Cc2ccoc2)nnn1-c1nonc1N [1-(4-amino-1,2,5-oxadiazol-3-yl)-5-[(dimethylamino)methyl]-N-(3-furanylmethylideneamino)-4-triazolecarboxamide]

Structure (SMILES)	EC50
CCCCOc1ccc(C=NNC(=O)c2nnn(-c3nonc3N)c2CN2CCCCCC2)cc1 [1-(4-amino-1,2,5-oxadiazol-3-yl)-5-(1-azepanylmethyl)-N-[(4-butoxyphenyl)methylideneamino]-4-triazolecarboxamide]	55.3 µM
